The nature of the assay: Biochemical Assay: Test compounds were placed in a Greiner Bio-One (Monroe, N.C.) 1536-well black solid bottom assay plate. 200 millimolar (mM) Tris HCl, pH 7.4, 100 micromolar (μM) EDTA and 0.01% TWEEN-20, final concentration, was used as the assay buffer. The LDHA reagent was 2 nanomolar (nM) Human LDHA (Meridian Life Science, Inc., Memphis, Tenn.), final concentration, in assay buffer. The substrate reagent was 0.06 mM NADH and 0.2 mM sodium pyruvate, final concentration, in assay buffer. The resazurin/diaphorase coupling reagent was 0.037 mM resazurin and 0.133 milligrams per milliliter (mg/mL) diaphorase, final concentration, in assay buffer. The inhibition of LDHA activity was measured by fluorescence emission. On the technique in general: Alamar Blue is a resazurin reagent that responds to reducing activity.

Where only a bound is given, the exact number is not on record here.

Broadly, the IC50 is the midpoint of a concentration-inhibition curve. A higher IC50 goes with weaker potency in that assay.

Consider `CC1CC=C(c2cc(-c3nn(-c4nc(C(=O)O)cs4)c(CC4CC4)c3Cc3ccc([SH+](N)[O-])c(F)c3)ccc2F)CC1` (centres undefined), for which the IC50 is under 100 nM. `COC1CC=C(c2cc(-c3nn(-c4nc(C(=O)O)cs4)c(CC4CC4)c3Cc3ccc([SH+](N)[O-])c(F)c3)ccc2F)CC1` (centres undefined) had an IC50 of under 100 nM. With `COc1ccc(-c2cc(-c3nn(-c4nc(C(=O)O)cs4)c(CC4CC4)c3Cc3ccc([SH+](N)[O-])c(F)c3)ccc2F)cc1C` (centres undefined) the figure was under 100 nM; with `N[S+](=O)([O-])c1ccc(Cc2c(-c3ccc(F)c(-c4ncc[nH]4)c3)nn(-c3nc(C(=O)O)cs3)c2CC2CC2)cc1F`, under 100 nM. Regarding `N[SH+]([O-])c1ccc(Cc2c(-c3cccc(-c4ccc(C5CC5)c(F)c4)c3)nn(-c3nc(C(=O)O)cs3)c2CC2CC2)cc1F` (centres undefined), the IC50 entry was “in the range around 29000 nM”. Then `Cc1ccc(C#Cc2cccc(-c3nn(-c4nc(C(=O)O)cs4)c(CCC4CC4)c3Cc3ccc([SH+](N)[O-])c(F)c3)c2)s1` (centres undefined), with under 100 nM; and `CC(C)(C)c1ccc(C#Cc2cc(-c3nn(-c4nc(C(=O)O)cs4)c(CC4CC4)c3Cc3ccc([SH+](N)[O-])c(F)c3)ccc2F)s1` (centres undefined), with “in the range around 550 nM”. With `N[SH+]([O-])c1ccc(Cc2c(-c3cccc(-c4ccc(Cl)c(F)c4)c3)nn(-c3nc(C(=O)O)cs3)c2CC2CC2)cc1F` (centres undefined) the figure was under 100 nM. With `Cc1ccc(C2CC2c2cccc(-c3nn(-c4nc(C(=O)O)cs4)c(CC4CC4)c3Cc3ccc([SH+](N)[O-])c(F)c3)c2)s1` (centres undefined) the figure was under 100 nM. Molecule `CC1CCCC=C1c1cc(-c2nn(-c3nc(C(=O)O)cs3)c(CC3CC3)c2Cc2ccc([SH+](N)[O-])c(F)c2)ccc1F` (centres undefined) gave an IC50 of under 100 nM.

As for `CC(C)c1ccc(-c2cccc(-c3nn(-c4nc(C(=O)O)cs4)c(CC4CC4)c3Cc3ccc([SH+](N)[O-])c(F)c3)c2)cc1` (centres undefined), the IC50 is under 100 nM.

On to `Cc1ncc(-c2cc(-c3nn(-c4nc(C(=O)O)cs4)c(CC4CC4)c3Cc3ccc([SH+](N)[O-])c(F)c3)ccc2F)[nH]1` (centres undefined), for which the IC50 was under 100 nM. `N[SH+]([O-])c1ccc(Cc2c(-c3cccc(C#Cc4ccc(C5CC5)s4)c3)nn(-c3nc(C(=O)O)cs3)c2CC2CC2)cc1F` (centres undefined): the IC50 result was “in the range around 550 nM”. With `N[S+](=O)([O-])c1ccc(Cc2c(-c3ccc(F)c(C4=CCCCC4)c3)nn(-c3nc(C(=O)O)cs3)c2CC2CC2)cc1F` the figure was under 100 nM. With `N[S+](=O)([O-])c1ccc(Cc2c(-c3ccc(F)c(C4=CCC5(CC4)CC5)c3)nn(-c3nc(C(=O)O)cs3)c2CC2CC2)cc1F` the figure was under 100 nM; with `Cc1ccc(C#Cc2cccc(-c3nn(-c4nc(C(=O)O)cs4)c(CC4(C)CC4)c3Cc3ccc([SH+](N)[O-])c(F)c3)c2)s1` (centres undefined), under 100 nM; with `N[S+](=O)([O-])c1ccc(Cc2c(-c3ccc(F)c(-c4cccc(Cl)c4)c3)nn(-c3nc(C(=O)O)cs3)c2CC2CC2)cc1F`, under 100 nM.

As for `CC(C)N1CC2(CN(c3cc(-c4nn(-c5nc(C(=O)O)cs5)c(CC5CC5)c4Cc4ccc([SH+](N)[O-])c(F)c4)ccc3F)C2)C1` (centres undefined), the IC50 was under 100 nM. Then `CC(=O)c1cc(-c2nn(-c3nc(C(=O)O)cs3)c(CC3CC3)c2Cc2ccc([SH+](N)[O-])c(F)c2)ccc1F` (centres undefined), with under 100 nM; and `N[S+](=O)([O-])c1ccc(Cc2c(-c3ccc(F)c(-c4ccc5c(c4)CCCC5)c3)nn(-c3nc(C(=O)O)cs3)c2CC2CC2)cc1F`, with under 100 nM; and `N[S+](=O)([O-])c1ccc(Cc2c(-c3ccc(F)c(-c4cc(F)cc(F)c4)c3)nn(-c3nc(C(=O)O)cs3)c2CC2CC2)cc1F`, with under 100 nM. Take `Cc1ccsc1C#Cc1cccc(-c2nn(-c3nc(C(=O)O)cs3)c(CC3CC3)c2Cc2ccc([SH+](N)[O-])c(F)c2)c1` (centres undefined): the IC50 was under 100 nM.

With `N[SH+]([O-])c1ccc(Cc2c(-c3cccc(C#Cc4ccc(C(F)F)s4)c3)nn(-c3nc(C(=O)O)cs3)c2CC2CC2)cc1F` (centres undefined), the IC50 is under 100 nM.

Turning to `Cc1ccc(-c2cc(-c3nn(-c4nc(C(=O)O)cs4)c(CC4CC4)c3Cc3ccc([SH+](N)[O-])c(F)c3)ccc2F)cc1F` (centres undefined), the IC50 was under 100 nM. Then `N[S+](=O)([O-])c1ccc(Cc2c(-c3ccc(F)c(-c4ccc(Cl)c(F)c4)c3)nn(-c3nc(C(=O)O)cs3)c2CC2CC2)cc1F`, with under 100 nM; and `N[SH+]([O-])c1ccc(Cc2c(-c3ccc(F)c(NC(=O)c4ccccc4)c3)nn(-c3nc(C(=O)O)cs3)c2CC2CC2)cc1F` (centres undefined), with under 100 nM; and `N[S+](=O)([O-])c1ccc(Cc2c(-c3ccc(F)c(-c4ccc(C(F)(F)F)cc4)c3)nn(-c3nc(C(=O)O)cs3)c2CC2CC2)cc1F`, with under 100 nM. With `Cc1ccc(C#Cc2cccc(-c3nn(-c4nc(C(=O)O)cs4)c(C4CC45CC5)c3Cc3ccc([SH+](N)[O-])c(F)c3)c2)s1` (centres undefined) the figure was under 100 nM; with `Cc1cc(C)c(C#Cc2cccc(-c3nn(-c4nc(C(=O)O)cs4)c(CC4CC4)c3Cc3ccc([SH+](N)[O-])c(F)c3)c2)s1` (centres undefined), under 100 nM.

In turn, `Cc1ccc(C#Cc2cccc(-c3nn(-c4nc(C(=O)O)cs4)c(CC4CC4)c3Cc3ccc([SH+](N)[O-])c(F)c3)c2)o1` (centres undefined) gave an IC50 of under 100 nM. Molecule `N[S+](=O)([O-])c1ccc(Cc2c(-c3ccc(F)c(-c4ccc5c(c4)CCC5)c3)nn(-c3nc(C(=O)O)cs3)c2CC2CC2)cc1F` displayed an IC50 of under 100 nM. With `Cc1ncc(C#Cc2cc(-c3nn(-c4nc(C(=O)O)cs4)c(CC4CC4)c3Cc3ccc([SH+](N)[O-])c(F)c3)ccc2F)s1` (centres undefined) the figure was under 100 nM; with `N[SH+]([O-])c1ccc(Cc2c(-c3cccc(-c4ccc(Cl)cc4)c3)nn(-c3nc(C(=O)O)cs3)c2CC2CC2)cc1F` (centres undefined), under 100 nM; with `CC1(C)CC=C(c2cc(-c3nn(-c4nc(C(=O)O)cs4)c(CC4CC4)c3Cc3ccc([SH+](N)[O-])c(F)c3)ccc2F)CC1` (centres undefined), under 100 nM.

Molecule `N[SH+]([O-])c1ccc(Cc2c(-c3ccc(F)c(C4=CCCO4)c3)nn(-c3nc(C(=O)O)cs3)c2CC2CC2)cc1F` (centres undefined) had an IC50 of under 100 nM. Then `Cc1cnc(C#Cc2cc(-c3nn(-c4nc(C(=O)O)cs4)c(CC4CC4)c3Cc3ccc([SH+](N)[O-])c(F)c3)ccc2F)s1` (centres undefined), with under 100 nM.

`Cc1ccc(-c2cccc(-c3nn(-c4nc(C(=O)O)cs4)c(CC4CC4)c3Cc3ccc([SH+](N)[O-])c(F)c3)c2)cc1F` (centres undefined) gave an IC50 of under 100 nM. Then `COc1ccc(-c2cccc(-c3nn(-c4nc(C(=O)O)cs4)c(CC4CC4)c3Cc3ccc([SH+](N)[O-])c(F)c3)c2)cc1C` (centres undefined), with under 100 nM; and `COc1cc(OC)cc(-c2cc(-c3nn(-c4nc(C(=O)O)cs4)c(CC4CC4)c3Cc3ccc([SH+](N)[O-])c(F)c3)ccc2F)c1` (centres undefined), with under 100 nM; and `Cc1cc(-c2cccc(-c3nn(-c4nc(C(=O)O)cs4)c(CC4CC4)c3Cc3ccc([SH+](N)[O-])c(F)c3)c2)ccc1Cl` (centres undefined), with “in the range around 29000 nM”. Regarding `Cc1ccc(C#Cc2cccc(-c3nn(-c4nc(C(N)=O)cs4)c(CC4CC4)c3Cc3ccc([SH+](N)[O-])c(F)c3)c2)s1` (centres undefined), the IC50 entry was “in the range around 29000 nM”. Then `N[S+](=O)([O-])c1ccc(Cc2c(-c3ccc(F)c(-c4ccc(F)c(F)c4)c3)nn(-c3nc(C(=O)O)cs3)c2CC2CC2)cc1F`, with under 100 nM; and `N[S+](=O)([O-])c1ccc(Cc2c(-c3ccc(F)c(C4=Cc5ccccc5C4)c3)nn(-c3nc(C(=O)O)cs3)c2CC2CC2)cc1F`, with under 100 nM; and `N[S+](=O)([O-])c1ccc(Cc2c(-c3ccc(F)c(-c4nc5ccccc5[nH]4)c3)nn(-c3nc(C(=O)O)cs3)c2CC2CC2)cc1F`, with under 100 nM. With `N[S+](=O)([O-])c1ccc(Cc2c(-c3ccc(F)c(C4=CCC(F)(F)CC4)c3)nn(-c3nc(C(=O)O)cs3)c2CC2CC2)cc1F` the figure was under 100 nM; with `CC(C)c1ccc(C#Cc2cccc(-c3nn(-c4nc(C(=O)O)cs4)c(CC4CC4)c3Cc3ccc([SH+](N)[O-])c(F)c3)c2)s1` (centres undefined), “in the range around 550 nM”. Then `N[S+](=O)([O-])c1ccc(Cc2c(-c3ccc(F)c(-c4ccc(Cl)cc4)c3)nn(-c3nc(C(=O)O)cs3)c2CC2CC2)cc1F`, with under 100 nM. With `Cc1ccc(/C=C/c2cccc(-c3nn(-c4nc(C(=O)O)cs4)c(CC4CC4)c3Cc3ccc([SH+](N)[O-])c(F)c3)c2)s1` (centres undefined), the IC50 was under 100 nM. Then `N[S+](=O)([O-])c1ccc(Cc2c(-c3ccc(F)c(C4=CCC(C(F)(F)F)CC4)c3)nn(-c3nc(C(=O)O)cs3)c2CC2CC2)cc1F` (centres undefined), with under 100 nM; and `CC(C)(C)c1ccc(-c2cccc(-c3nn(-c4nc(C(=O)O)cs4)c(CC4CC4)c3Cc3ccc([SH+](N)[O-])c(F)c3)c2)cc1` (centres undefined), with “in the range around 550 nM”; and `N[SH+]([O-])c1ccc(Cc2c(-c3cccc(C#Cc4ccc(C(F)(F)F)s4)c3)nn(-c3nc(C(=O)O)cs3)c2CC2CC2)cc1F` (centres undefined), with “in the range around 550 nM”.

For the molecule `Cc1ccc(C#Cc2cccc(-c3nn(-c4nc(B(O)O)cs4)c(CC4CC4)c3Cc3ccc([SH+](N)[O-])c(F)c3)c2)s1` (centres undefined), the IC50 result is “in the range around 29000 nM”. Consider `Cc1ccc([C@H]2C[C@@H](c3cccc(-c4nn(-c5nc(C(=O)O)cs5)c(CC5CC5)c4Cc4ccc([SH+](N)[O-])c(F)c4)c3)C2)s1` (some centres undefined), for which the IC50 was under 100 nM.

`N[SH+]([O-])c1ccc(Cc2c(-c3cccc(C#Cc4ccc(Cl)s4)c3)nn(-c3nc(C(=O)O)cs3)c2CC2CC2)cc1F` (centres undefined) came in with an IC50 of under 100 nM. Then `Cc1cnc(C#Cc2cccc(-c3nn(-c4nc(C(=O)O)cs4)c(CC4CC4)c3Cc3ccc([SH+](N)[O-])c(F)c3)c2)o1` (centres undefined), with under 100 nM; and `Cc1cc(C)cc(-c2cc(-c3nn(-c4nc(C(=O)O)cs4)c(CC4CC4)c3Cc3ccc([SH+](N)[O-])c(F)c3)ccc2F)c1` (centres undefined), with “in the range around 550 nM”.

The molecule `Cc1ccc(C#Cc2cc(-c3nn(-c4nc(C(=O)O)cs4)c(CCC4CC4)c3Cc3ccc([SH+](N)[O-])c(F)c3)ccc2F)s1` (centres undefined) registered an IC50 of under 100 nM. With `Cc1ccc(C#Cc2cccc(-c3nn(-c4nc(C(=O)O)cs4)c(CC4CC4)c3Cc3ccc([SH+](N)[O-])c(F)c3)c2)s1` (centres undefined) the figure was under 100 nM; with `N[S+](=O)([O-])c1ccc(Cc2c(-c3ccc(F)c(-c4cc(Cl)cc(Cl)c4)c3)nn(-c3nc(C(=O)O)cs3)c2CC2CC2)cc1F`, “in the range around 550 nM”.

These data come from ChEMBL document CHEMBL5728348, “1 H-pyrazol-1-yl-thiazoles as inhibitors of lactate dehydrogenase and methods of use thereof” (2021).
